From patent US8192962B2, “Processes for detecting toxic substances” (Daikin Industries, Ltd., priority 2001, dated 2012)

System: Unknown protein yeast genes
Test: DNA chip mRNA expression in yeast, unknown protein yeast genes (Table 1)
Type: cell-based, Saccharomyces cerevisiae S288C
Summary of the method: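 Untreated cultures served as reference for log-phase S288C yeast given a growth-inhibiting, non-lethal toxicant dose for 2 h at 25° C. in YPD. Gene expression was measured on a whole-genome DNA chip from Cy3/Cy5-labeled cDNA.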

## [Cl][Cd][Cl] [(2), CdCl2]
Yeast gene YAL053W, incubated two hours with chemical substance
  The level of expressed mRNA in the presence of chemical substance/The level of expressed mRNA in the absence of chemical substance: 0.9
Yeast gene YBL048W
  The level of expressed mRNA in the presence of chemical substance/The level of expressed mRNA in the absence of chemical substance: 7.9
Yeast gene YBL107C
  The level of expressed mRNA in the presence of chemical substance/The level of expressed mRNA in the absence of chemical substance: 1.1
Yeast gene YDL072C, incubated two hours with chemical substance
  The level of expressed mRNA in the presence of chemical substance/The level of expressed mRNA in the absence of chemical substance: 1.1
Yeast gene YDL204W, incubated two hours with chemical substance
  The level of expressed mRNA in the presence of chemical substance/The level of expressed mRNA in the absence of chemical substance: 1.9
Yeast gene YDL222C, incubated two hours with chemical substance
  The level of expressed mRNA in the presence of chemical substance/The level of expressed mRNA in the absence of chemical substance: 1.1
Yeast gene YDR330W, incubated two hours with chemical substance
  The level of expressed mRNA in the presence of chemical substance/The level of expressed mRNA in the absence of chemical substance: 1.5
Yeast gene YDR411C, incubated two hours with chemical substance
  The level of expressed mRNA in the presence of chemical substance/The level of expressed mRNA in the absence of chemical substance: 2.8
Yeast gene YDR511W, incubated two hours with chemical substance
  The level of expressed mRNA in the presence of chemical substance/The level of expressed mRNA in the absence of chemical substance: 1.7
Yeast gene YDR545W, incubated two hours with chemical substance
  The level of expressed mRNA in the presence of chemical substance/The level of expressed mRNA in the absence of chemical substance: 1.2
Yeast gene YEL001C, incubated two hours with chemical substance
  The level of expressed mRNA in the presence of chemical substance/The level of expressed mRNA in the absence of chemical substance: 1.0
Yeast gene YER004W, incubated two hours with chemical substance
  The level of expressed mRNA in the presence of chemical substance/The level of expressed mRNA in the absence of chemical substance: 1.5
Yeast gene YER035W, incubated two hours with chemical substance
  The level of expressed mRNA in the presence of chemical substance/The level of expressed mRNA in the absence of chemical substance: 1.6
Yeast gene YER079W, incubated two hours with chemical substance
  The level of expressed mRNA in the presence of chemical substance/The level of expressed mRNA in the absence of chemical substance: 1.6
Yeast gene YER106W, incubated two hours with chemical substance
  The level of expressed mRNA in the presence of chemical substance/The level of expressed mRNA in the absence of chemical substance: 0.7
Yeast gene YER158C, incubated two hours with chemical substance
  The level of expressed mRNA in the presence of chemical substance/The level of expressed mRNA in the absence of chemical substance: 0.9
Yeast gene YER163C, incubated two hours with chemical substance
  The level of expressed mRNA in the presence of chemical substance/The level of expressed mRNA in the absence of chemical substance: 2.4
Yeast gene YER175C, incubated two hours with chemical substance
  The level of expressed mRNA in the presence of chemical substance/The level of expressed mRNA in the absence of chemical substance: 1.2
Yeast gene YFL006W, incubated two hours with chemical substance
  The level of expressed mRNA in the presence of chemical substance/The level of expressed mRNA in the absence of chemical substance: 2.8
Yeast gene YFL010C, incubated two hours with chemical substance
  The level of expressed mRNA in the presence of chemical substance/The level of expressed mRNA in the absence of chemical substance: 4.8
Yeast gene YFL024C
  The level of expressed mRNA in the presence of chemical substance/The level of expressed mRNA in the absence of chemical substance: 1.1
Yeast gene YFL032W, incubated two hours with chemical substance
  The level of expressed mRNA in the presence of chemical substance/The level of expressed mRNA in the absence of chemical substance: 1.5
Yeast gene YGL037C, incubated two hours with chemical substance
  The level of expressed mRNA in the presence of chemical substance/The level of expressed mRNA in the absence of chemical substance: 2.7
Yeast gene YGL047W, incubated two hours with chemical substance
  The level of expressed mRNA in the presence of chemical substance/The level of expressed mRNA in the absence of chemical substance: 1.9
Yeast gene YGL053W, incubated two hours with chemical substance
  The level of expressed mRNA in the presence of chemical substance/The level of expressed mRNA in the absence of chemical substance: 1.5
Yeast gene YGL121C
  The level of expressed mRNA in the presence of chemical substance/The level of expressed mRNA in the absence of chemical substance: 5.0
Yeast gene YGL199C, incubated two hours with chemical substance
  The level of expressed mRNA in the presence of chemical substance/The level of expressed mRNA in the absence of chemical substance: 1.7
Yeast gene YGR101W, incubated two hours with chemical substance
  The level of expressed mRNA in the presence of chemical substance/The level of expressed mRNA in the absence of chemical substance: 1.3
Yeast gene YGR110W
  The level of expressed mRNA in the presence of chemical substance/The level of expressed mRNA in the absence of chemical substance: 3.1
Yeast gene YGR130C, incubated two hours with chemical substance
  The level of expressed mRNA in the presence of chemical substance/The level of expressed mRNA in the absence of chemical substance: 0.7
Yeast gene YGR154C, incubated two hours with chemical substance
  The level of expressed mRNA in the presence of chemical substance/The level of expressed mRNA in the absence of chemical substance: 2.9
Yeast gene YGR221C, incubated two hours with chemical substance
  The level of expressed mRNA in the presence of chemical substance/The level of expressed mRNA in the absence of chemical substance: 2.2
Yeast gene YHR138C, incubated two hours with chemical substance
  The level of expressed mRNA in the presence of chemical substance/The level of expressed mRNA in the absence of chemical substance: 1.8
Yeast gene YHR199C, incubated two hours with chemical substance
  The level of expressed mRNA in the presence of chemical substance/The level of expressed mRNA in the absence of chemical substance: 2.0
Yeast gene YIL023C, incubated two hours with chemical substance
  The level of expressed mRNA in the presence of chemical substance/The level of expressed mRNA in the absence of chemical substance: 1.2
Yeast gene YIL041W, incubated two hours with chemical substance
  The level of expressed mRNA in the presence of chemical substance/The level of expressed mRNA in the absence of chemical substance: 1.2
Yeast gene YIL087C, incubated two hours with chemical substance
  The level of expressed mRNA in the presence of chemical substance/The level of expressed mRNA in the absence of chemical substance: 1.9
Yeast gene YJL057C, incubated two hours with chemical substance
  The level of expressed mRNA in the presence of chemical substance/The level of expressed mRNA in the absence of chemical substance: 1.2
Yeast gene YJL066C, incubated two hours with chemical substance
  The level of expressed mRNA in the presence of chemical substance/The level of expressed mRNA in the absence of chemical substance: 1.2
Yeast gene YJL082W, incubated two hours with chemical substance
  The level of expressed mRNA in the presence of chemical substance/The level of expressed mRNA in the absence of chemical substance: 0.8
Yeast gene YJL151C, incubated two hours with chemical substance
  The level of expressed mRNA in the presence of chemical substance/The level of expressed mRNA in the absence of chemical substance: 2.4
Yeast gene YJL152W, incubated two hours with chemical substance
  The level of expressed mRNA in the presence of chemical substance/The level of expressed mRNA in the absence of chemical substance: 1.5
Yeast gene YJL161W, incubated two hours with chemical substance
  The level of expressed mRNA in the presence of chemical substance/The level of expressed mRNA in the absence of chemical substance: 2.2
Yeast gene YJL171C, incubated two hours with chemical substance
  The level of expressed mRNA in the presence of chemical substance/The level of expressed mRNA in the absence of chemical substance: 0.7
Yeast gene YJR008W, incubated two hours with chemical substance
  The level of expressed mRNA in the presence of chemical substance/The level of expressed mRNA in the absence of chemical substance: 1.5
Yeast gene YJR054W, incubated two hours with chemical substance
  The level of expressed mRNA in the presence of chemical substance/The level of expressed mRNA in the absence of chemical substance: 0.9
Yeast gene YKL071W
  The level of expressed mRNA in the presence of chemical substance/The level of expressed mRNA in the absence of chemical substance: 3.8
Yeast gene YKL086W, incubated two hours with chemical substance
  The level of expressed mRNA in the presence of chemical substance/The level of expressed mRNA in the absence of chemical substance: 1.1
Yeast gene YKL151C, incubated two hours with chemical substance
  The level of expressed mRNA in the presence of chemical substance/The level of expressed mRNA in the absence of chemical substance: 3.1
Yeast gene YKL153W, incubated two hours with chemical substance
  The level of expressed mRNA in the presence of chemical substance/The level of expressed mRNA in the absence of chemical substance: 1.4
